Reference: patent publication EP4722207A1, “OXOISOINDOLINYL-SUBSTITUTED TETRAHYDROPYRIMIDINEDIONE DERIVATIVE AND USE THEREOF” (Gluetacs Therapeutics (Shanghai) Co., Ltd., priority 2023, dated 2024)

What was measured:
[1] = target: T1, GSPT1 (Homo sapiens, UniProt P15170+Q96SW2); test: Western-blot assay, substrate protein degradation in hPBMCs: GSPT1; format: cell-based; settings: for substrate protein remaining % GSPT1: 24 hours of compound treatment, 50 nM and 500 nM; for GSPT1 substrate protein remaining %: compounds at 50 nM and 500 nM, 24 hours
T1 construct: effects of the compounds of the present disclosure on the expression of target proteins in cells; endogenous in cells; host or cells: human PBMCs (hPBMCs)
T1 sequence (P15170 whole entry): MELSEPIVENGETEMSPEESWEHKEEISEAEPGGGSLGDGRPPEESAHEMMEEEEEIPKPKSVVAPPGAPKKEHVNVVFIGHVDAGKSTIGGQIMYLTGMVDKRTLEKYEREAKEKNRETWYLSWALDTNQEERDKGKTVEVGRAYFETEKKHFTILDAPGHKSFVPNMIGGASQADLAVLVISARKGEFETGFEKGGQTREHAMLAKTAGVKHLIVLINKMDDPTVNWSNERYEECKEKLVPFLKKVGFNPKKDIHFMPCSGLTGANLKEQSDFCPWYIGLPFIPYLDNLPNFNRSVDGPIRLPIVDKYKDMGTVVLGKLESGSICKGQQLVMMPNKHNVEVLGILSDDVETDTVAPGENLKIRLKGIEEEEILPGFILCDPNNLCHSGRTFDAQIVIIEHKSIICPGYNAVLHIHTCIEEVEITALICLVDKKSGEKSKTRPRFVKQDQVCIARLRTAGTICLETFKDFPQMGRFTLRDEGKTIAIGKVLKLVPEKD
T1 sequence (Q96SW2 whole entry): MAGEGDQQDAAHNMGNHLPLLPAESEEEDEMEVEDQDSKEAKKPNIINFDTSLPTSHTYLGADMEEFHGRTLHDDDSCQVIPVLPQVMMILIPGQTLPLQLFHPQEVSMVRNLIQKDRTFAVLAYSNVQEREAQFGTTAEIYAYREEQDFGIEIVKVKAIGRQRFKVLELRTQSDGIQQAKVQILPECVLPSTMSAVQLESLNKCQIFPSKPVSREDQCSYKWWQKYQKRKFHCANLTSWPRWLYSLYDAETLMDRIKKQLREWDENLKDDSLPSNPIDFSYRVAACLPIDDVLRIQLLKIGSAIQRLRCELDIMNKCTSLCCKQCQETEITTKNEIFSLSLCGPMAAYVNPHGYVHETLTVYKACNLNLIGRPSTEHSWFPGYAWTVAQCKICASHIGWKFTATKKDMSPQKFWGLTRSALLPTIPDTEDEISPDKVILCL
T1 sequence (Q16531 whole entry partner): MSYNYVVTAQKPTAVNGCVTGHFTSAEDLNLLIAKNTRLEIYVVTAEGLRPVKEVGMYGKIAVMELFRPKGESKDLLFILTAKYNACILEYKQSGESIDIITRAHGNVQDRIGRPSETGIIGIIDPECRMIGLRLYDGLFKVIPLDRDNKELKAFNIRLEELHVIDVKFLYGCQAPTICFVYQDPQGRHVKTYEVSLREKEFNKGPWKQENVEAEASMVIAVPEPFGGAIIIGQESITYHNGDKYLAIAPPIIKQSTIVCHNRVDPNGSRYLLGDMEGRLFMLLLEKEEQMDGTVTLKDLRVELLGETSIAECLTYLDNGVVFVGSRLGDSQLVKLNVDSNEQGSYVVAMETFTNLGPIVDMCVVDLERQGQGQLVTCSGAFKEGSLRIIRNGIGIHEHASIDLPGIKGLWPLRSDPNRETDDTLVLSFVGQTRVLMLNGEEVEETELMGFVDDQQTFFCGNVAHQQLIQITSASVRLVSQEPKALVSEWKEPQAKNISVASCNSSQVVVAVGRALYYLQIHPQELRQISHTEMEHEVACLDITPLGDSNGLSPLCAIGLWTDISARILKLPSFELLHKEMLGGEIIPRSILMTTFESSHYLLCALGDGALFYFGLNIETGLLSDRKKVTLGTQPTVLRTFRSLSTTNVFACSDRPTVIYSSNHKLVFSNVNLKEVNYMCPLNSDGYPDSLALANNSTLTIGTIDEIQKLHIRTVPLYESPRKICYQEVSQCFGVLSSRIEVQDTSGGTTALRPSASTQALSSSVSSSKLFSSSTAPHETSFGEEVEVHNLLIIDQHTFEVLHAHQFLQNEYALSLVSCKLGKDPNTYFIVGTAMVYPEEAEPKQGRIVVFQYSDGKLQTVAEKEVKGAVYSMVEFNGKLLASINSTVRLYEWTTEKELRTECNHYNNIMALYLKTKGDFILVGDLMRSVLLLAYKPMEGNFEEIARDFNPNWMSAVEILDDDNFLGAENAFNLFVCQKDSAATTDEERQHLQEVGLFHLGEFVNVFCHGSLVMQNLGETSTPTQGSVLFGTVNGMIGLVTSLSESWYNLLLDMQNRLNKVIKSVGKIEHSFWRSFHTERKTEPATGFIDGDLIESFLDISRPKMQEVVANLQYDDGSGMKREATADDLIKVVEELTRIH

[2] = target: T2, IKZF2 (Homo sapiens, UniProt Q96SW2+Q9UKS7); test: Western-blot assay, substrate protein degradation in hPBMCs: IKZF2; format: cell-based; settings: for substrate protein remaining % IKZF2: 24 hours of compound treatment, 50 nM and 500 nM; for IKZF2 substrate protein remaining %: compounds at 50 nM and 500 nM, 24 hours
T2 construct: effects of the compounds of the present disclosure on the expression of target proteins in cells; endogenous in cells; host or cells: human PBMCs (hPBMCs)
T2 sequence (Q9UKS7 whole entry): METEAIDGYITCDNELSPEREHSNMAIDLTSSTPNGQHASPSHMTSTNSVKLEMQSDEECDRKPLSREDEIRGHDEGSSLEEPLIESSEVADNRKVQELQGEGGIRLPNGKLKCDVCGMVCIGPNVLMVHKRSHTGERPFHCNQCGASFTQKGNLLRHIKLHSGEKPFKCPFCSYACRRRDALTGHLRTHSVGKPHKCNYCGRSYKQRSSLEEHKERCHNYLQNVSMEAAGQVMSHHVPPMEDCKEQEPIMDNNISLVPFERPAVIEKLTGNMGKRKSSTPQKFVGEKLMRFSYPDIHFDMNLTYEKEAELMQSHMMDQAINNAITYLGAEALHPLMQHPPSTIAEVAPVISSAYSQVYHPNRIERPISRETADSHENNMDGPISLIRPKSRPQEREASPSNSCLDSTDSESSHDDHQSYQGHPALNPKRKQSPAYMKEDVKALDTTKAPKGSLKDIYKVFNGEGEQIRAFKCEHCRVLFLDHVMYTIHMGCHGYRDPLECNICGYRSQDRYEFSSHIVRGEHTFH
T2 sequence (Q96SW2 whole entry): as the sequence (Q96SW2 whole entry) above
T2 sequence (Q16531 whole entry partner): as the sequence (Q16531 whole entry partner) above

[3] = target: T3, WEE1 (Homo sapiens, UniProt P30291+Q96SW2); test: Western-blot assay, substrate protein degradation in hPBMCs: WEE1; format: cell-based; settings: for substrate protein remaining % WEE1: 24 hours of compound treatment, 50 nM and 500 nM; for WEE1 substrate protein remaining %: compounds at 50 nM and 500 nM, 24 hours
T3 construct: effects of the compounds of the present disclosure on the expression of target proteins in cells; endogenous in cells; host or cells: human PBMCs (hPBMCs)

[4] = target: T4, IKZF3 (Homo sapiens, UniProt Q96SW2+Q9UKT9); test: Western-blot assay, substrate protein degradation in hPBMCs: IKZF3; format: cell-based; settings: for substrate protein remaining % IKZF3: 24 hours of compound treatment, 50 nM and 500 nM; for IKZF3 substrate protein remaining %: compounds at 50 nM and 500 nM, 24 hours
T4 construct: effects of the compounds of the present disclosure on the expression of target proteins in cells; endogenous in cells; host or cells: human PBMCs (hPBMCs)
T4 sequence (Q9UKT9 whole entry): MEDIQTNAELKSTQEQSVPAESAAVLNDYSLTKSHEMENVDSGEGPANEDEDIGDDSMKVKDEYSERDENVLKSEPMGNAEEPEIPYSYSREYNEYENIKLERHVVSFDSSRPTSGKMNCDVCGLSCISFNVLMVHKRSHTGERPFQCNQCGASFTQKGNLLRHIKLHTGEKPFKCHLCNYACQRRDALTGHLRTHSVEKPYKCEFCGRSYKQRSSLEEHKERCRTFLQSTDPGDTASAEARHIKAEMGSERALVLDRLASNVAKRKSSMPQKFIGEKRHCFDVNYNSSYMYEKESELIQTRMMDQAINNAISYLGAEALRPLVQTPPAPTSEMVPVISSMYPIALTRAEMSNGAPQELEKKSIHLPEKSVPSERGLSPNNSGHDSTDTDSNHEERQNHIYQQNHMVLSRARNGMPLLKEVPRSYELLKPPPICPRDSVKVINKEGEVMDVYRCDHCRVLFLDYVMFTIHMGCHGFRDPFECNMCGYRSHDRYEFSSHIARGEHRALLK
T4 sequence (Q96SW2 whole entry): as the sequence (Q96SW2 whole entry) above
T4 sequence (Q16531 whole entry partner): as the sequence (Q16531 whole entry partner) above

[5] = target: T5, human Cereblon WT GST-tagged protein (Homo sapiens, UniProt Q96SW2); test: CRBN-binding affinity, CEREBLON BINDING kit (HTRF); settings: for IC50: 3 hours at room temperature
T5 construct: purchased CISBIO 64BDCRBNPEH
T5 sequence (Q96SW2 whole entry): as the sequence (Q96SW2 whole entry) above
Text: The CEREBLON BINDING kits (specification: 10,000 tests; product number: Catalog # 64BDCRBNPEH; CISBIO company) was used to determine the CRBN binding ability of the compounds to be tested through a HTRF method (homogeneous time-resolved fluorescence). The specific methods are as follows: • 1. […] Specifically, diluent #9 (1X) solution was used as the diluent, and multiple concentration gradients were set. […] Into the 96-well plate, the diluted test compounds and corresponding detection reagents were added, resulting in final test compound concentrations of 2 µM and 0.5 µM, respectively. […] Then, 2.5 µL of human Cereblon WT GST-tagged protein solution was added to each well. Finally, 5 µL of the thoroughly mixed Thalidomide-Re reagent and GST Eu antibody working solution were added to each of the aforementioned wells. […] The blank control wells were sequentially added with 2.5 µL of diluent #9 (1X) solution, 2.5 µL of binding buffer, and 5 µL of thoroughly mixed Thalidomide-Re reagent and GST Eu antibody working solution. • 4. […] OD 620 nm control is the absorbance value of the blank control well at an emission wavelength of 620 nm. […] OD 620 nm Std0 is the absorbance value of the solvent control well at an emission wavelength of 620 nm.

[6] = target: T6, CK1α (Homo sapiens, UniProt P48729+Q96SW2); test: Western-blot assay, substrate protein degradation in hPBMCs: CK1α; format: cell-based; settings: for substrate protein remaining % CK1α: 24 hours of compound treatment, 50 nM and 500 nM; for CK1α substrate protein remaining %: compounds at 50 nM and 500 nM, 24 hours
T6 construct: effects of the compounds of the present disclosure on the expression of target proteins in cells; endogenous in cells; host or cells: human PBMCs (hPBMCs)
T6 sequence (P48729 whole entry): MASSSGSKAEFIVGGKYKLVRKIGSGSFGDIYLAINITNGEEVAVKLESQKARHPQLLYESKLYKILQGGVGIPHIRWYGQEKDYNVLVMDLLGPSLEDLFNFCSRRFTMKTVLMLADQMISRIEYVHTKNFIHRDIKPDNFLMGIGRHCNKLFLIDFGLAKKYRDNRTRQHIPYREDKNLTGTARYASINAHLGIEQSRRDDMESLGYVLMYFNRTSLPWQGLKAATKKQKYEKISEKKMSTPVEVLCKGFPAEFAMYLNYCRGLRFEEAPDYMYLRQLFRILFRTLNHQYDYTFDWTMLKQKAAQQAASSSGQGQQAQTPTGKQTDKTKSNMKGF
T6 sequence (Q96SW2 whole entry): as the sequence (Q96SW2 whole entry) above
T6 sequence (Q16531 whole entry partner): as the sequence (Q16531 whole entry partner) above

[7] = target: T7, IKZF1 (Homo sapiens, UniProt Q13422+Q96SW2); test: Western-blot assay, substrate protein degradation in hPBMCs: IKZF1; format: cell-based; settings: for substrate protein remaining % IKZF1: 24 hours of compound treatment, 50 nM and 500 nM; for IKZF1 substrate protein remaining %: compounds at 50 nM and 500 nM, 24 hours
T7 construct: effects of the compounds of the present disclosure on the expression of target proteins in cells; endogenous in cells; host or cells: human PBMCs (hPBMCs)
T7 sequence (Q13422 whole entry): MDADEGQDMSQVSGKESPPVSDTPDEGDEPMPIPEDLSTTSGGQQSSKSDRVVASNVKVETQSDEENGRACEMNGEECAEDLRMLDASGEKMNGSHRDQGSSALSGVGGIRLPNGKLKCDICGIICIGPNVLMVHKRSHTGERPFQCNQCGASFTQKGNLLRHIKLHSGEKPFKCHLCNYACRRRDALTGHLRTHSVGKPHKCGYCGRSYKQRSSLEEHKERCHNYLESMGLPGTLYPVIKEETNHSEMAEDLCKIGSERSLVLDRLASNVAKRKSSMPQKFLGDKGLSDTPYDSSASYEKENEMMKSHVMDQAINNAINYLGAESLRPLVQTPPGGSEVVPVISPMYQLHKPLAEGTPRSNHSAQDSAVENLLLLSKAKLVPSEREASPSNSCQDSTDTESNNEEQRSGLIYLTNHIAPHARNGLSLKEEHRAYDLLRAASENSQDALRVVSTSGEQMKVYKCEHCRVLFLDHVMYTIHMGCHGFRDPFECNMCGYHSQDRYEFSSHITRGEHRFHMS
T7 sequence (Q96SW2 whole entry): as the sequence (Q96SW2 whole entry) above
T7 sequence (Q16531 whole entry partner): as the sequence (Q16531 whole entry partner) above

[8] = system: Jurkat; test: Cell viability assay (CellTiter-Meiluncell Luminescent), tumor cell proliferation, Jurkat; settings: Homo sapiens, 96 h, read-out: inhibitory activity (IC50, nM) against tumor cells proliferation, Jurkat
[9] = system: MM.1S; test: Cell viability assay (CellTiter-Meiluncell Luminescent), tumor cell proliferation, MM.1S; settings: Homo sapiens, MM1.S, 96 h, read-out: inhibitory activity (IC50, nM) against tumor cells proliferation, MM.1S
[10] = system: MV-4-11; test: Cell viability assay (CellTiter-Meiluncell Luminescent), tumor cell proliferation, MV-4-11; settings: Homo sapiens, MV4-11, 96 h

Row | IC50 [5] | SMILES | substrate protein remaining % GSPT1 [1] | substrate protein remaining % IKZF2 [2] | substrate protein remaining % WEE1 [3] | substrate protein remaining % IKZF3 [4] | substrate protein remaining % CK1α [6] | substrate protein remaining % IKZF1 [7] | GSPT1 substrate protein remaining % [1] | IKZF2 substrate protein remaining % [2] | WEE1 substrate protein remaining % [3] | IKZF3 substrate protein remaining % [4] | CK1α substrate protein remaining % [6] | IKZF1 substrate protein remaining % [7] | other results
1 | 1500 to 1900 nM | O=C1CCN(N2Cc3cc(CN4CC=C(c5c[nH]c6cc(F)ccc56)CC4)ccc3C2=O)C(=O)N1 [GT-07574, 1-(5-((4-(6-fluoro-1H-indol-3-yl)-3,6-dihydropyridin-1(2H)-yl)methyl)-1-oxoisoindolin-2-yl)dihydropyrimidine-2,4(1H,3H)-dione] | A (0% ≤ substrate protein remaining % ≤ 80%) | A (0% ≤ substrate protein remaining % ≤ 80%) | A (0% ≤ substrate protein remaining % ≤ 80%) | B (80%< substrate protein remaining %≤ 100%) | A (0% ≤ substrate protein remaining % ≤ 80%) | B (80%< substrate protein remaining %≤ 100%) | – | – | – | – | – | – | –
2 | 1500 to 1900 nM | O=C1CCN(N2Cc3cc(CN4CC5CCC4CN5C(c4ccccc4)c4ccccc4)ccc3C2=O)C(=O)N1 (stereo not drawn) [GT-06450, 1-(5-((5-benzhydryl-2,5-diazabicyclo[2.2.2]octan-2-yl)methyl)-1-oxoisoindolin-2-yl)dihydropyrimidine-2,4(1H,3H)-dione] | – | – | – | – | – | – | A ("A" is defined as 0% ≤ substrate protein remaining % ≤ 80%) | A ("A" is defined as 0% ≤ substrate protein remaining % ≤ 80%) | A ("A" is defined as 0% ≤ substrate protein remaining % ≤ 80%) | A ("A" is defined as 0% ≤ substrate protein remaining % ≤ 80%) | B ("B" is defined as 80%< substrate protein remaining %≤ 100%) | B ("B" is defined as 80%< substrate protein remaining %≤ 100%) | –
3 | 1000 to 1500 nM | O=C1CCN(N2Cc3cc(CN4CCN(c5cccs5)CC4)ccc3C2=O)C(=O)N1 [GT-05073, 1-(1-oxo-5-((4-(thiophen-2-yl)piperazin-1-yl)methyl)isoindolin-2-yl)dihydropyrimidine-2,4(1H,3H)-dione] | – | – | – | – | – | – | B ("B" is defined as 80%< substrate protein remaining %≤ 100%) | B ("B" is defined as 80%< substrate protein remaining %≤ 100%) | B ("B" is defined as 80%< substrate protein remaining %≤ 100%) | A ("A" is defined as 0% ≤ substrate protein remaining % ≤ 80%) | B ("B" is defined as 80%< substrate protein remaining %≤ 100%) | B ("B" is defined as 80%< substrate protein remaining %≤ 100%) | –
4 | – | O=C1CCN(N2Cc3cc(CN4CC=C(c5n[nH]c6cc(F)ccc56)CC4)ccc3C2=O)C(=O)N1 [GT-07578, 1-(5-((4-(6-fluoro-1H-indazol-3-yl)-3,6-dihydropyridin-1(2H)-yl)methyl)-1-oxoisoindolin-2-yl)dihydropyrimidine-2,4(1H,3H)-dione] | A (0% ≤ substrate protein remaining % ≤ 80%) | A (0% ≤ substrate protein remaining % ≤ 80%) | A (0% ≤ substrate protein remaining % ≤ 80%) | B (80%< substrate protein remaining %≤ 100%) | B (80%< substrate protein remaining %≤ 100%) | A (0% ≤ substrate protein remaining % ≤ 80%) | – | – | – | – | – | – | IC50 [8]: 50 to 100 nM; IC50 [9]: 50 to 100 nM
5 | – | Cc1nc(C2CCN(Cc3ccc4c(c3)CN(N3CCC(=O)NC3=O)C4=O)CC2)c2c(-c3ccccc3)csc2n1 [GT-08087, 1-(5-((4-(2-methyl-5-phenylthieno[2,3-d]pyrimidin-4-yl)piperidin-1-yl)methyl)-1-oxoisoindolin-2-yl)dihydropyrimidine-2,4(1H,3H)-dione] | – | – | – | – | – | – | – | – | – | – | – | – | inhibition at 0.01 µM ([10]; read-out: Inhibition Rate at 10 nM (%)): 30 to 40%; inhibition at 0.5 µM ([10]; read-out: Inhibition Rate at 500 nM (%)): 30 to 40%; inhibition at 0.5 µM ([5]; 0.5 µM, read-out: Inhibition Rate at 0.5 µM (%)): 20 to 30%; inhibition at 2 µM ([5]; 2 µM, read-out: Inhibition Rate at 2 µM (%)): 60 to 80%
